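Tested at 5 concentrations; 48 h exposure; 96-well plates; endpoints linearly interpolated, else capped at highest concentration. TGI: total growth inhibition.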
Key:
Assay in all cases: NCI-60 cell line screen, 48 h
[1] = system: COLO 205 colon
[2] = system: TK-10 renal
[3] = system: SW-620 colon
[4] = system: NCI/ADR-RES ovarian
[5] = system: MOLT-4 leukemia
[6] = system: SK-MEL-2 melanoma
[7] = system: SF-539 CNS
[8] = system: SF-295 CNS
[9] = system: SNB-19 CNS
[10] = system: KM12 colon
[11] = system: MCF7 breast
[12] = system: M14 melanoma
[13] = system: SK-MEL-28 melanoma
[14] = system: RPMI-8226 leukemia
[15] = system: UACC-257 melanoma
[16] = system: UACC-62 melanoma
[17] = system: OVCAR-5 ovarian
[18] = system: EKVX NSCLC
[19] = system: HL-60(TB) leukemia
[20] = system: OVCAR-8 ovarian
[21] = system: K-562 leukemia
[22] = system: NCI-H460 lung
[23] = system: MDA-N
[24] = system: HOP-62 NSCLC
[25] = system: NCI-H23 lung
[26] = system: NCI-H522 lung
[27] = system: IGROV1 ovarian
[28] = system: A549 NSCLC
[29] = system: UO-31 renal
[30] = system: SK-MEL-5 melanoma
[31] = system: HCT-116 colon
[32] = system: HS 578T breast
[33] = system: T-47D breast
[34] = system: HCT-15 colon
[35] = system: U251 CNS
[36] = system: MALME-3M melanoma
[37] = system: HCC-2998 colon
[38] = system: BT-549 breast
[39] = system: PC-3 prostate
[40] = system: SR leukemia
[41] = system: 786-0 renal
[42] = system: LOX IMVI melanoma
[43] = system: MDA-MB-231 breast
[44] = system: A498 renal
[45] = system: SN12C renal
[46] = system: HT29 colon
[47] = system: ACHN renal
[48] = system: OVCAR-3 ovarian
[49] = system: DU-145 prostate
[50] = system: SNB-75 CNS
[51] = system: NCI-H226 lung
[52] = system: CAKI-1 renal
[53] = system: OVCAR-4 ovarian
[54] = system: SK-OV-3 ovarian
[55] = system: RXF 393 renal
[56] = system: HOP-92 NSCLC
[57] = system: SF-268 CNS
[58] = system: CCRF-CEM leukemia
[59] = system: MDA-MB-435

SMILES: C=CC(=O)Nc1ccc(NC(=O)C=C)c2c1C(=O)c1ccccc1C2=O
- TGI [1]: > 100 µM
- TGI [2]: 62.5 µM
- TGI [3]: > 100 µM
- TGI [4]: > 100 µM
- TGI [5]: 96.4 µM
- TGI [6]: > 100 µM
- TGI [7]: 70.9 µM
- TGI [8]: 49.8 µM
- TGI [9]: > 100 µM
- TGI [10]: 29.1 µM
- TGI [11]: 57.4 µM
- TGI [12]: > 100 µM
- TGI [13]: > 100 µM
- TGI [14]: 21.2 µM
- TGI [15]: > 100 µM
- TGI [16]: 90.8 µM
- TGI [17]: > 100 µM
- TGI [18]: > 100 µM
- TGI [19]: 24.7 µM
- TGI [20]: > 100 µM
- TGI [21]: 48.4 µM
- TGI [22]: > 100 µM
- TGI [23]: > 100 µM
- TGI [24]: > 100 µM
- TGI [25]: > 100 µM
- TGI [26]: 34.6 µM
- TGI [27]: > 100 µM
- TGI [28]: > 100 µM
- TGI [29]: > 100 µM
- TGI [30]: > 100 µM
- TGI [31]: > 100 µM
- TGI [32]: > 100 µM
- TGI [33]: > 100 µM
- TGI [34]: > 100 µM
- TGI [35]: > 100 µM
- TGI [36]: > 100 µM
- TGI [37]: > 100 µM
- TGI [38]: > 100 µM
- TGI [39]: > 100 µM
- TGI [40]: > 100 µM
- TGI [41]: 84.6 µM
- TGI [42]: 47.4 µM
- TGI [43]: > 100 µM
- TGI [44]: > 100 µM
- TGI [45]: > 100 µM
- TGI [46]: > 100 µM
- TGI [47]: > 100 µM
- TGI [48]: > 100 µM

SMILES: CC(=O)OCCn1cnc2c(NCC=C(C)C)ncnc21
- TGI [1]: > 100 µM
- TGI [2]: > 100 µM
- TGI [3]: > 100 µM
- TGI [4]: > 100 µM
- TGI [5]: > 100 µM
- TGI [7]: > 100 µM
- TGI [49]: > 100 µM
- TGI [8]: > 100 µM
- TGI [50]: > 100 µM
- TGI [9]: > 100 µM
- TGI [10]: > 100 µM
- TGI [11]: > 100 µM
- TGI [12]: > 100 µM
- TGI [13]: > 100 µM
- TGI [51]: > 100 µM
- TGI [14]: > 100 µM
- TGI [15]: > 100 µM
- TGI [17]: > 100 µM
- TGI [52]: > 100 µM
- TGI [18]: > 100 µM
- TGI [53]: > 100 µM
- TGI [19]: > 100 µM
- TGI [20]: > 100 µM
- TGI [54]: > 100 µM
- TGI [21]: > 100 µM
- TGI [22]: > 100 µM
- TGI [23]: > 100 µM
- TGI [24]: > 100 µM
- TGI [25]: > 100 µM
- TGI [26]: > 100 µM
- TGI [55]: > 100 µM
- TGI [27]: > 100 µM
- TGI [28]: > 100 µM
- TGI [29]: > 100 µM
- TGI [30]: > 100 µM
- TGI [31]: > 100 µM
- TGI [32]: > 100 µM
- TGI [33]: > 100 µM
- TGI [36]: > 100 µM
- TGI [56]: > 100 µM
- TGI [39]: > 100 µM
- TGI [57]: > 100 µM
- TGI [40]: > 100 µM
- TGI [41]: > 100 µM
- TGI [42]: > 100 µM
- TGI [43]: > 100 µM
- TGI [44]: > 100 µM
- TGI [58]: > 100 µM
- TGI [45]: > 100 µM
- TGI [46]: > 100 µM
- TGI [47]: > 100 µM
- TGI [48]: > 100 µM
- TGI [59]: > 100 µM

Reference: PubChem BioAssay (NCI)
